Experimental data published in patent US20170342025A1, “ANTIMICROBIAL COMPOUNDS, COMPOSITIONS AND METHODS” (Swansea University, priority 2014, published 2017).
Read-outs that look alike come from different tables or passages of the source.

Assays:
[1] = test system: Escherichia coli (strain JM109); test: MIC determination against Escherichia coli (Andrews protocol); assay type: cell-based; settings: for MIC: Escherichia coli, read-out: MIC E. coli
Experimental: (§1) Minimum Inhibitory Concentrations (MICs) for the compounds prepared were determined against Escherichia coli (strain JM109) and Staphylococcus aureus (strain 9518) using the protocols described by Andrews (J. Antimicrob. Chemother., 2001, 48, Suppl. S1, 5-16).

[2] = test system: Staphylococcus aureus (strain 9518); test: MIC determination against Staphylococcus aureus (Andrews protocol); assay type: cell-based; settings: for MIC: Staphylococcus aureus, read-out: MIC S. aureus
Experimental: as §1

[3] = Staphylococcus aureus strain 9518

SMILES: N=C(N)NCc1cccc(NC(=O)c2ccccc2)c1.O=C(O)C(F)(F)F [Compound 57a, Amino((3-benzamidobenzyl)amino)methaniminium 2,2,2-trifluoroacetate]
- MIC [1]: 32 to 100 µg/mL
- MIC [2]: 32 to 100 µg/mL

SMILES: COCCN(Cc1cccc(OCc2cccc(Cl)c2Cl)c1)C(=N)N.O=C(O)C(F)(F)F [Compound 9b, 1-({3-[(2,3-dichlorophenyl)methoxy]phenyl}methyl)-1-(2-methoxyethyl) guanidine 2,2,2-trifluoroacetate]
- MIC ([1]; Escherichia coli strain JM109): 10 to 32 µg/mL
- MIC [2, 3]: 10 to 32 µg/mL

SMILES: CC(=O)O.[H]/N=C(\N)NN=Cc1ccc(OC)c(OCc2ccc(Cl)c(Cl)c2)c1 [Compound 49g, (E)-2-(3-((3,4-dichlorobenzyl)oxy)-4-methoxybenzylidene)hydrazine-1-carboximidamide acetate]
- MIC ([1]; Escherichia coli strain JM109): 1 to 10 µg/mL
- MIC [2, 3]: 10 to 32 µg/mL

SMILES: N=C(N)NCc1cccc(OCc2ccc(Cl)c(Cl)c2)c1.O=C(O)C(F)(F)F [Compound 4e, 1-({3-[(3,4-dichlorophenyl)methoxy]phenyl}methyl)guanidine 2,2,2-trifluoroacetate]
- MIC [1]: 10 to 32 µg/mL
- MIC [2]: 1 to 10 µg/mL

SMILES: N=C(N)NCc1ccc(OCc2cccc(Cl)c2)cc1.O=C(O)C(F)(F)F [Compound 19c, 1-(4-((3-chlorobenzyl)oxy)benzyl)guanidine 2,2,2-trifluoroacetate]
- MIC ([1]; Escherichia coli strain JM109): > 100 µg/mL
- MIC [2, 3]: 10 to 32 µg/mL

SMILES: CN(Cc1cccc(OCc2cccc(Cl)c2Cl)c1)C(=N)N.Cl [Compound 10a, 1-({3-[(2,3-dichlorophenyl)methoxy]phenyl}methyl)-1-methylguanidine hydrochloride]
- MIC ([1]; Escherichia coli strain JM109): 32 to 100 µg/mL
- MIC [2, 3]: 10 to 32 µg/mL

SMILES: N=C(N)NCc1ccc(OCc2ccc(Cl)c(Cl)c2)cc1.O=C(O)C(F)(F)F [Compound 19d, 1-(4-((3,4-dichlorobenzyl)oxy)benzyl)guanidine 2,2,2-trifluoroacetate]
- MIC ([1]; Escherichia coli strain JM109): 10 to 32 µg/mL
- MIC [2, 3]: 1 to 10 µg/mL

SMILES: N=C(N)Nc1ccc(OCc2ccc(Cl)cc2)cc1.O=C(O)C(F)(F)F [Compound 23b, 1-{4-[(4-chlorophenyl)methoxy]phenyl}guanidine 2,2,2-trifluoroacetate]
- MIC ([1]; Escherichia coli strain JM109): > 100 µg/mL
- MIC [2, 3]: > 100 µg/mL

SMILES: N=C(N)NOCc1cccc(-c2ccccc2)c1.O=C(O)C(F)(F)F [Compound 41a, 1-[(3-phenylphenyl)methoxy]guanidine 2,2,2-trifluoroacetate]
- MIC ([1]; Escherichia coli strain JM109): > 100 µg/mL
- MIC [2, 3]: > 100 µg/mL

SMILES: N=C(N)N1CCN(c2ccc(Cl)cc2)CC1.O=C(O)C(F)(F)F.O=C(O)C(F)(F)F [Compound 44a, 4-(4-chlorophenyl)piperazine-1-carboximidamide bis-(2,2,2-trifluoroacetate)]
- MIC ([1]; Escherichia coli strain JM109): > 100 µg/mL
- MIC [2, 3]: > 100 µg/mL

SMILES: N=C(N)NCc1ccc(NS(=O)(=O)c2cccc(C(F)(F)F)c2)cc1.O=C(O)C(F)(F)F [Compound 55d]
- MIC E. coli ([1]; Escherichia coli strain JM109): + (32-100 μg/mL)
- MIC S. aureus [2, 3]: + (32-100 μg/mL)

SMILES: N=C(N)NCc1ccc(OCc2ccc(Cl)cc2)cc1.O=C(O)C(F)(F)F [Compound 19b, 1-(4-((4-chlorobenzyl)oxy)benzyl)guanidine 2,2,2-trifluoroacetate]
- MIC ([1]; Escherichia coli strain JM109): > 100 µg/mL
- MIC [2, 3]: 32 to 100 µg/mL

SMILES: N=C(N)NCc1cccc(NS(=O)(=O)c2ccc(Cl)cc2)c1.O=C(O)C(F)(F)F [Compound 55f, Amino((3-((4-chlorophenyl)sulfonamido)benzyl)amino)methaniminium 2,2,2-trifluoroacetate]
- MIC ([1]; Escherichia coli strain JM109): 32 to 100 µg/mL
- MIC [2, 3]: 32 to 100 µg/mL

SMILES: Cl.N=C(N)N1CCc2c(cccc2OCc2cccc(Cl)c2Cl)C1 [Compound 38, 5-[(2,3-dichlorophenyl)methoxy]-1,2,3,4-tetrahydroisoquinoline-2-carboximidamide hydrochloride]
- MIC ([1]; Escherichia coli strain JM109): 10 to 32 µg/mL
- MIC [2, 3]: 10 to 32 µg/mL

SMILES: N=C(N)NCc1cccc(OCc2ccc(F)cc2)c1.O=C(O)C(F)(F)F [Compound 4k, 1-({3-[(4-fluorophenyl)methoxy]phenyl}methyl)guanidine 2,2,2-trifluoroacetate]
- MIC [1]: 10 to 32 µg/mL
- MIC [2]: 32 to 100 µg/mL

SMILES: N=C(N)NCc1ccc(NS(=O)(=O)c2cccc(Cl)c2)cc1.O=C(O)C(F)(F)F [Compound 55a, Amino((4-((3-chlorophenyl)sulfonamido)benzyl)amino)methaniminium 2,2,2-trifluoroacetate]
- MIC ([1]; Escherichia coli strain JM109): 32 to 100 µg/mL
- MIC [2, 3]: 32 to 100 µg/mL

SMILES: N=C(N)NCc1cccc(NS(=O)(=O)c2cccc(Cl)c2Cl)c1.O=C(O)C(F)(F)F [Compound 55g, Amino((3-((2,3-dichlorophenyl)sulfonamido)benzyl)amino)methaniminium 2,2,2-trifluoroacetate]
- MIC ([1]; Escherichia coli strain JM109): 32 to 100 µg/mL
- MIC [2, 3]: 32 to 100 µg/mL

SMILES: N=C(N)NC(=O)c1cccc(OCc2ccccc2)c1.O=C(O)C(F)(F)F [Compound 47, 3-(benzyloxy)-N-carbamimidoylbenzamide 2,2,2-trifluoroacetate]
- MIC [1]: 32 to 100 µg/mL
- MIC [2]: 10 to 32 µg/mL

SMILES: N=C(N)Nc1ccc(CNS(=O)(=O)c2ccccc2)cc1.O=C(O)C(F)(F)F [Compound 59b, Amino((4-(phenylsulfonamidomethyl)phenyl)amino)methaniminium 2,2,2-trifluoroacetate]
- MIC [1]: 32 to 100 µg/mL
- MIC [2]: 32 to 100 µg/mL

SMILES: CNC(=N)NCc1cccc(OCc2cccc(Cl)c2Cl)c1.O=C(O)C(F)(F)F [Compound 15, 3-({3-[(2,3-dichlorophenyl)methoxy]phenyl}methyl)-1-methylguanidine 2,2,2-trifluoroacetate]
- MIC ([1]; Escherichia coli strain JM109): 10 to 32 µg/mL
- MIC [2, 3]: 10 to 32 µg/mL

SMILES: Cl.N=C(N)N/N=C/c1nccn1Cc1ccc(Cl)cc1 [Compound 61b, (E)-Amino(2-((1-(4-chlorobenzyl)-1H-imidazol-2-yl)methylene)hydrazinyl) methaniminium chloride]
- MIC ([1]; Escherichia coli strain JM109): 10 to 32 µg/mL
- MIC [2, 3]: 10 to 32 µg/mL

SMILES: N=C(N)NCc1cccc(OCc2ccc(Br)cc2)c1.O=C(O)C(F)(F)F [Compound 4j, 1-({3-[(4-bromophenyl)methoxy]phenyl}methyl)guanidine 2,2,2-trifluoroacetate]
- MIC [1]: 1 to 10 µg/mL
- MIC [2]: 10 to 32 µg/mL

SMILES: N=C(N)Nc1ccc(OCc2ccccc2)cc1.O=C(O)C(F)(F)F [Compound 23a, 1-[4-(benzyloxy)phenyl]guanidine 2,2,2-trifluoroacetate]
- MIC ([1]; Escherichia coli strain JM109): > 100 µg/mL
- MIC [2, 3]: 1 to 10 µg/mL

SMILES: N=C(N)Nc1ccc(OCc2cccc(Cl)c2)cc1.O=C(O)C(F)(F)F [Compound 23c, 1-{4-[(3-chlorophenyl)methoxy]phenyl}guanidine 2,2,2-trifluoroacetate]
- MIC ([1]; Escherichia coli strain JM109): > 100 µg/mL
- MIC [2, 3]: 10 to 32 µg/mL

SMILES: N=C(N)NCc1ccc(N)cc1.O=C(O)C(F)(F)F [Compound 53b, Amino((4-aminobenzyl)amino)methaniminium 2,2,2-trifluoroacetate]
- MIC [1]: 32 to 100 µg/mL
- MIC [2]: 32 to 100 µg/mL

SMILES: N=C(N)NCc1cccc(OCc2ccc(Cl)cc2)c1.O=C(O)C(F)(F)F [Compound 4b, 1-({3-[(4-chlorophenyl)methoxy]phenyl}methyl)guanidine 2,2,2-trifluoroacetate]
- MIC [1]: 1 to 10 µg/mL
- MIC [2]: 1 to 10 µg/mL

SMILES: Cl.N=C(N)N/N=C/c1cccc(OCc2cccc(Cl)c2)c1Cl [Compound 51m, (E)-Amino(2-(2-chloro-3-((3-chlorobenzyl)oxy)benzylidene)hydrazinyl) methaniminium chloride]
- MIC ([1]; Escherichia coli strain JM109): 1 to 10 µg/mL
- MIC [2, 3]: 10 to 32 µg/mL

SMILES: COc1ccc(CNC(=N)N)cc1OCc1cccc(Cl)c1.O=C(O)C(F)(F)F [Compound 4m, 1-({3-[(3-chlorophenyl)methoxy]-4-methoxyphenyl}methyl)guanidine 2,2,2-trifluoroacetate]
- MIC [1]: > 100 µg/mL
- MIC [2]: > 100 µg/mL

SMILES: COc1cccc(N2CCN(C(=N)N)CC2)c1.O=C(O)C(F)(F)F.O=C(O)C(F)(F)F [Compound 44b, 4-(3-methoxyphenyl)piperazine-1-carboximidamide bis-(2,2,2-trifluoroacetate)]
- MIC ([1]; Escherichia coli strain JM109): > 100 µg/mL
- MIC [2, 3]: > 100 µg/mL

SMILES: N=C(N)N1CCc2ccc(Br)cc2C1.O=C(O)C(F)(F)F [Compound 26, 7-bromo-1,2,3,4-tetrahydroisoquinoline-2-carboximidamid 2,2,2-trifluoroacetate]
- MIC ([1]; Escherichia coli strain JM109): > 100 µg/mL
- MIC [2, 3]: > 100 µg/mL

SMILES: N=C(N)NCc1ccc(OCc2ccccc2)cc1.O=C(O)C(F)(F)F [Compound 19a, 1-(4-(benzyloxy)benzyl)guanidine 2,2,2-trifluoroacetate]
- MIC ([1]; Escherichia coli strain JM109): > 100 µg/mL
- MIC [2, 3]: 10 to 32 µg/mL

SMILES: Cl.N=C(N)N/N=C/c1cccn1Cc1cccc(C(F)(F)F)c1 [Compound 61g, (E)-Amino(2-((1-(3-(trifluoromethyl)benzyl)-1H-pyrrol-2-yl)methylene) hydrazinyl)methaniminium chloride]
- MIC ([1]; Escherichia coli strain JM109): 10 to 32 µg/mL
- MIC [2, 3]: 10 to 32 µg/mL

SMILES: COc1ccc(CNC(=N)N)cc1OCc1ccc(Cl)cc1.O=C(O)C(F)(F)F [Compound 4n, 1-({3-[(4-chlorophenyl)methoxy]-4-methoxyphenyl}methyl)guanidine 2,2,2-trifluoroacetate]
- MIC [1]: > 100 µg/mL
- MIC [2]: 32 to 100 µg/mL

SMILES: N=C(N)NCc1cccc(OCc2cccc(C(F)(F)F)c2)c1.O=C(O)C(F)(F)F [Compound 4i, 1-[(3-{[3-(trifluoromethyl)phenyl]methoxy}phenyl)methyl]guanidine 2,2,2-trifluoroacetate]
- MIC [1]: 1 to 10 µg/mL
- MIC [2]: 1 to 10 µg/mL

SMILES: N=C(N)NOCc1cccc(Oc2ccccc2)c1.O=C(O)C(F)(F)F [Compound 41b, 1-[(3-phenoxyphenyl)methoxy]guanidine 2,2,2-trifluoroacetate]
- MIC ([1]; Escherichia coli strain JM109): > 100 µg/mL
- MIC [2, 3]: > 100 µg/mL

SMILES: N=C(N)NCc1cccc(NS(=O)(=O)c2cccc(C(F)(F)F)c2)c1.O=C(O)C(F)(F)F [Compound 55h, Amino((3-((3-(trifluoromethyl)phenyl)sulfonamido)benzyl)amino) methaniminium 2,2,2-trifluoroacetate]
- MIC ([1]; Escherichia coli strain JM109): 32 to 100 µg/mL
- MIC [2, 3]: 32 to 100 µg/mL

SMILES: Cl.N=C(N)N/N=C/c1cccn1Cc1ccc(C(F)(F)F)cc1 [Compound 61h, (E)-Amino(2-((1-(4-(trifluoromethyl)benzyl)-1H-pyrrol-2-yl)methylene) hydrazinyl)methaniminium chloride]
- MIC ([1]; Escherichia coli strain JM109): 10 to 32 µg/mL
- MIC [2, 3]: 10 to 32 µg/mL
